This is an account of results in US9073855B2, “BCL-2 selective apoptosis-inducing agents for the treatment of cancer and immune diseases” (AbbVie Inc., priority 2008, dated 2015).

Some results are limits rather than exact numbers.

One test deals with GST-Bcl-2 (Homo sapiens, UniProt P10415). As to the kind of experiment: TR-FRET binding assay, GST-Bcl-2 with F-Bak peptide probe. To be noted: TR-FRET Binding Affinity, GST-Bcl-2, F-Bak peptide probe. The protocol: (§1) Tb-anti-GST antibody was purchased from Invitrogen (Catalog No. PV4216).
(§2) Representative compounds were serially diluted in dimethyl sulfoxide (DMSO) starting at 50 μM (2× starting concentration; 10% DMSO) and 10 μL were transferred into a 384-well plate.
(§3) The samples were then mixed on a shaker for 1 minute and incubated for an additional 3 hours at room temperature. For each assay, the probe/antibody and protein/probe/antibody were included on each assay plate as negative and positive controls, respectively. Fluorescence was measured on the ENVISION plate reader (Perkin Elmer) using a 340/35 nm excitation filter and 520/525 (F-Bak peptide) and 495/510 nm (Tb-labeled […] antibody) emission filters.
(§4) The inhibition constant (Ki) is the dissociation constant of an enzyme-inhibitor complex or a protein/small molecule complex, wherein the small molecule is inhibiting binding of one protein to another protein or peptide. […] Inhibition constants were determined using Wang's equation (Wang Z-X., An Exact Mathematical Expression For Describing Competitive Binding Of Two Different Ligands To A Protein Molecule. FEBS Lett. 1995, 360:111-4).
A general note: In TR-FRET formats the signal depends on donor and acceptor labels being close together.

The next test concerns the target GST-Bcl-XL (Homo sapiens, UniProt Q07817). As to the kind of experiment: TR-FRET binding assay, GST-Bcl-XL with F-Bak peptide probe. The conditions noted are these: TR-FRET Binding Affinity, GST-Bcl-XL, F-Bak peptide probe. The protocol:
as §1, §2, §3, §4

GST-Bcl-2, sequence (P10415 whole entry): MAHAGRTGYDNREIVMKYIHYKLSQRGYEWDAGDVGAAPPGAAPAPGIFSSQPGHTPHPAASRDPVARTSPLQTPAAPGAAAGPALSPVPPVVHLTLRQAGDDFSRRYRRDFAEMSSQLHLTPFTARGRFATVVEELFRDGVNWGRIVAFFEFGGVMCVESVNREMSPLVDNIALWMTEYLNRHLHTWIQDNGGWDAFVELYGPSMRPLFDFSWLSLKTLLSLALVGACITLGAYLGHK
GST-Bcl-XL, sequence (Q07817 whole entry): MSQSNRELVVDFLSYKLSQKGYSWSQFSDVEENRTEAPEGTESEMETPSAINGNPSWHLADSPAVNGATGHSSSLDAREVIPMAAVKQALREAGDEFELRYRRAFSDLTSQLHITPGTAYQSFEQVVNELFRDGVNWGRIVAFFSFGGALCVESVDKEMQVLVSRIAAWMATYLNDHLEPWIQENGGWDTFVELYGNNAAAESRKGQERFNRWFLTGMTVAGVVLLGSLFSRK

As for `O=C(NS(=O)(=O)c1ccc(NCCCN2CCCC2)c([N+](=O)[O-])c1)c1ccc(N2CCN(Cc3ccccc3-c3ccc(Cl)cc3)CC2)cc1Oc1ccccc1` [Example 91, 4-{4-[(4′-chloro-1,1′-biphenyl-2-yl)methyl]piperazin-1-yl}-N-({3-nitro-4-[(3-pyrrolidin-1-ylpropyl)amino]phenyl}sulfonyl)-2-phenoxybenzamide], the Ki came to 0.193 nM at GST-Bcl-2 and 10.2 nM on GST-Bcl-XL.

On to `CN(C)CCCNc1ccc(S(=O)(=O)NC(=O)c2ccc(N3CCN(Cc4ccccc4-c4ccc(Cl)cc4)CC3)cc2Oc2ccccc2)cc1C(F)(F)F` [Example 92, 4-{4-[(4′-chloro-1,1′-biphenyl-2-yl)methyl]piperazin-1-yl}-N-{[4-{[3-(dimethylamino)propyl]amino}-3-(trifluoromethyl)phenyl]sulfonyl}-2-phenoxybenzamide], for which the figures for the Ki at GST-Bcl-2 and on GST-Bcl-XL were 4.38 nM and 349 nM, respectively.

In the case of `CC(C)N(C)CCCNc1ccc(S(=O)(=O)NC(=O)c2ccc(N3CCN(Cc4ccccc4-c4ccc(Cl)cc4)CC3)cc2Oc2ccccc2)cc1[N+](=O)[O-]` [Example 93, 4-{4-[(4′-chloro-1,1′-biphenyl-2-yl)methyl]piperazin-1-yl}-N-{[4-({3-[isopropyl(methyl)amino]propyl}amino)-3-nitrophenyl]sulfonyl}-2-phenoxybenzamide], the Ki was found to be 0.231 nM at GST-Bcl-2 and 13.9 nM at GST-Bcl-XL.

As to `CN1CCN(CCNc2ccc(S(=O)(=O)NC(=O)c3ccc(N4CCN(CC5=C(c6ccc(Cl)cc6)CC(C)(C)CC5)CC4)cc3Oc3ccc4[nH]ccc4c3)cc2[N+](=O)[O-])CC1` [Example 95, 4-(4-{[2-(4-chlorophenyl)-4,4-dimethylcyclohex-1-en-1-yl]methyl}piperazin-1-yl)-2-(1H-indol-5-yloxy)-N-[(4-{[2-(4-methylpiperazin-1-yl)ethyl]amino}-3-nitrophenyl)sulfonyl]benzamide], the Ki on GST-Bcl-2 is 0.06 nM; on GST-Bcl-XL, 15.7 nM.

`CN1CCN(CCNc2ccc(S(=O)(=O)NC(=O)c3ccc(N4CCN(CC5=C(c6ccc(Cl)cc6)CC(C)(C)CC5)CC4)cc3Oc3cccc4[nH]ccc34)cc2[N+](=O)[O-])CC1` [Example 101, 4-(4-{[2-(4-chlorophenyl)-4,4-dimethylcyclohex-1-en-1-yl]methyl}piperazin-1-yl)-2-(1H-indol-4-yloxy)-N-[(4-{[2-(4-methylpiperazin-1-yl)ethyl]amino}-3-nitrophenyl)sulfonyl]benzamide]: the values for the Ki on GST-Bcl-2 and on GST-Bcl-XL were 0.092 nM and 11.2 nM, respectively.

With `CN1CCN(c2ccc(S(=O)(=O)NC(=O)c3ccc(N4CCN(CC5=C(c6ccc(Cl)cc6)CC(C)(C)CC5)CC4)cc3Oc3ccc4[nH]ccc4c3)cc2[N+](=O)[O-])CC1` [Example 107, 4-(4-{[2-(4-chlorophenyl)-4,4-dimethylcyclohex-1-en-1-yl]methyl}piperazin-1-yl)-2-(1H-indol-5-yloxy)-N-{[4-(4-methylpiperazin-1-yl)-3-nitrophenyl]sulfonyl}benzamide], the inhibitory constant (Ki) came out at 2.09 nM at GST-Bcl-2 and 130 nM on GST-Bcl-XL.

Consider `CC1(C)CCC(CN2CCN(c3ccc(C(=O)NS(=O)(=O)c4ccc(NC5CCN(CC(F)(F)F)CC5)c([N+](=O)[O-])c4)c(Oc4cccc5[nH]ccc45)c3)CC2)=C(c2ccc(Cl)cc2)C1` [Example 108, 4-(4-{[2-(4-chlorophenyl)-4,4-dimethylcyclohex-1-en-1-yl]methyl}piperazin-1-yl)-2-(1H-indol-4-yloxy)-N-[(3-nitro-4-{[1-(2,2,2-trifluoroethyl)piperidin-4-yl]amino}phenyl)sulfonyl]benzamide], for which the Ki came to 2.34 nM on GST-Bcl-2 and 59.6 nM on GST-Bcl-XL.

Take `O=C(NS(=O)(=O)c1ccc(NCC2CCOCC2)c([N+](=O)[O-])c1)c1ccc(N2CCN(Cc3cc(OCCCN4CCCCC4)ccc3-c3ccc(Cl)cc3)CC2)cc1Oc1ccccc1` [Example 114, 4-(4-{[4′-chloro-4-(3-piperidin-1-ylpropoxy)-1,1′-biphenyl-2-yl]methyl}piperazin-1-yl)-N-({3-nitro-4-[(tetrahydro-2H-pyran-4-ylmethyl)amino]phenyl}sulfonyl)-2-phenoxybenzamide]: the Ki was 0.096 nM on GST-Bcl-2 and 14.3 nM on GST-Bcl-XL.

With `O=C(NS(=O)(=O)c1ccc(NCC2CCOCC2)c([N+](=O)[O-])c1)c1ccc(N2CCN(Cc3cc(OCCN4CCOCC4)ccc3-c3ccc(Cl)cc3)CC2)cc1Oc1ccccc1` [Example 115, 4-(4-{[4′-chloro-4-(2-morpholin-4-ylethoxy)-1,1′-biphenyl-2-yl]methyl}piperazin-1-yl)-N-({3-nitro-4-[(tetrahydro-2H-pyran-4-ylmethyl)amino]phenyl}sulfonyl)-2-phenoxybenzamide], the Ki turned out to be 0.176 nM at GST-Bcl-2 and 27.5 nM at GST-Bcl-XL.

As for `CN(C)CCCOc1ccc(-c2ccc(Cl)cc2)c(CN2CCN(c3ccc(C(=O)NS(=O)(=O)c4ccc(NCC5CCOCC5)c([N+](=O)[O-])c4)c(Oc4ccccc4)c3)CC2)c1` [Example 116, 4-[4-({4′-chloro-4-[3-(dimethylamino)propoxy]-1,1′-biphenyl-2-yl}methyl)piperazin-1-yl]-N-({3-nitro-4-[(tetrahydro-2H-pyran-4-ylmethyl)amino]phenyl}sulfonyl)-2-phenoxybenzamide], the Ki at GST-Bcl-2 came to 0.036 nM; at GST-Bcl-XL it was 8.3 nM.

Turning to `O=C(NS(=O)(=O)c1ccc(NCC2CCOCC2)c(S(=O)(=O)C(F)(F)F)c1)c1ccc(N2CCN(Cc3cc(OCCN4CCOCC4)ccc3-c3ccc(Cl)cc3)CC2)cc1Oc1ccccc1` [Example 117, 4-(4-{[4′-chloro-4-(2-morpholin-4-ylethoxy)-1,1′-biphenyl-2-yl]methyl}piperazin-1-yl)-2-phenoxy-N-({4-[(tetrahydro-2H-pyran-4-ylmethyl)amino]-3-[(trifluoromethyl)sulfonyl]phenyl}sulfonyl)benzamide], the Ki was 2.3 nM at GST-Bcl-2 and more than 660 nM on GST-Bcl-XL.

As for `O=C(NS(=O)(=O)c1ccc(NCC2CCOCC2)c(S(=O)(=O)C(F)(F)F)c1)c1ccc(N2CCN(Cc3cc(OCCCN4CCCCC4)ccc3-c3ccc(Cl)cc3)CC2)cc1Oc1ccccc1` [Example 118, 4-(4-{[4′-chloro-4-(3-piperidin-1-ylpropoxy)-1,1′-biphenyl-2-yl]methyl}piperazin-1-yl)-2-phenoxy-N-({4-[(tetrahydro-2H-pyran-4-ylmethyl)amino]-3-[(trifluoromethyl)sulfonyl]phenyl}sulfonyl)benzamide], the Ki was 0.769 nM on GST-Bcl-2 and more than 660 nM on GST-Bcl-XL.

Consider `CN(C)CCCOc1ccc(-c2ccc(Cl)cc2)c(CN2CCN(c3ccc(C(=O)NS(=O)(=O)c4ccc(NCC5CCOCC5)c(S(=O)(=O)C(F)(F)F)c4)c(Oc4ccccc4)c3)CC2)c1` [Example 119, 4-[4-({4′-chloro-4-[3-(dimethylamino)propoxy]-1,1′-biphenyl-2-yl}methyl)piperazin-1-yl]-2-phenoxy-N-({4-[(tetrahydro-2H-pyran-4-ylmethyl)amino]-3-[(trifluoromethyl)sulfonyl]phenyl}sulfonyl)benzamide], for which the Ki was 0.622 nM at GST-Bcl-2 and 230 nM at GST-Bcl-XL.

Usually Ki stands for the dissociation constant of the complex between target and ligand, obtained from inhibition or displacement. A low value points to a stronger hold on the target.
